According to patent publication US10633367B2, “Fluorine- and/or deuterium-containing compounds for treating non-small cell lung cancer and related diseases” (X-Cutag Therapeutics, Inc., priority 2017, dated 2020):

Tests used:
[1] = Co-incubation in dog plasma (ex-vivo stability, LC-MS/MS); assay type: in vitro ADME; conditions: beagle plasma, after incubating for two hours, co-incubated, FIG. 11
Experimental: (§1) Briefly, 40 μL of osimertinib was co-incubated with an equal volume of one of the compounds described in this invention at the same concentration in blank plasma (human, beagle dog, Sprague-Dawley rat or CD-1 mouse). The tubes were incubated in a dry bath incubator for six time points ranging from 0 to 120 minutes. At each time point, the plasma was crashed with 200 μL internal standard working solution in acetonitrile, then vortexes and centrifuged. A portion of the supernatant was then transferred to autosampler vials for injection into the LC-MS/MS system. Chromatographic retention of osimertinib and the compounds described in the invention was obtained on an ACE 3 C18, 2.1×50 min, 3.0 μm column (Aberdeen, Scotland) under gradient conditions with a flow rate of 0.3 mL/minute. Analytes were detected by multiple reaction monitoring using an MDS Sciex API 4000 mass spectrometer (Applied Biosystems/MDS Sciex, Concord, Ontario, Canada) in positive mode. Data was captured using Analyst®, Version 1.6.2 (Applied Biosystems/MDS Sciex, Foster City, Calif.) and then exported to Excel® (Microsoft, Seattle, Wash.) for further data reduction.

[2] = Co-incubation in mouse plasma (ex-vivo stability, LC-MS/MS); assay type: in vitro ADME, CD-1 mouse; conditions: after incubating for two hours, co-incubated, FIG. 12
Experimental: as §1

[3] = Co-incubation in human plasma (ex-vivo stability, LC-MS/MS); assay type: in vitro ADME; conditions: co-dosed with osimertinib at 1:1 ratio, 0 to 120 minutes, FIG. 9
Experimental: as §1

[4] = Co-incubation in rat plasma (ex-vivo stability, LC-MS/MS); assay type: in vitro ADME, Sprague-Dawley rat; conditions: after incubating for two hours, co-incubated, FIG. 10
Experimental: as §1

[5] = system: NCI-H1975 NSCLC cells carrying activating EGFR T790M mutation; assay: Cell viability of NCI-H1975 cells (CCK-8 assay); assay type: cell-based, human; conditions: 36 hour treatment, CCK-8, FIG. 13
Experimental: NCI-H1975 is a model human NSCLC cell line that expresses activating EGER-T790M mutant, resulting in uncontrolled cell proliferation. Efficient inhibition of EGFR tyrosine kinase activity by TKI can affect cell growth, causing cell death. Here the inventors studied the effect of F1-osimertinib on cell viability of NCI-H1975 cells by […] (Cell Counting Kit-8 (CCK-8), Bimake.com, Houston, Tex.). 4,000 exponentially growing cells in 100 ul culture media were seeded in triplicate into 96-well plates and cultured to 70-80% continency. Cells were treated with indicated concentration of F1-osimertinib for 36 hour. 10 ul/well CCK-8 were added and continuously incubated till the absorbance (OD) at 450 nm reaches 0.8 measured by a microplate reader. Medium only wells were served as blank control. The cell viability was calculated as follows: Cell viability (%)=[A(F1-osimertinib)−A(blank)]/[A(solvent)−A(blank)]×100%. A: OD value measured.

Row | remaining percentage of the initial concentration [1] | remaining percentage [2] [%] | stability when incubated in human plasma [3] | remaining percentage of the initial concentration [4] | Structure (SMILES) | inhibition of NSCLC cell growth (cell viability) [5]
1 | approximately 78% | 92 | decreased rapidly | around 35% | C=CC(=O)Nc1cc(Nc2nccc(-c3cn(C)c4ccccc34)n2)c(OC)cc1N(C)CCN(C)C [osimertinib, N-(2-{2-dimethylaminoethyl-methylamino}-4-methoxy-5-{[4-(1-methylindol-3-yl)pyrimidin-2-yl]amino}phenyl)prop-2-enamide] | 
2 |  |  |  |  | [2H]C([2H])([2H])n1cc(-c2ccnc(Nc3cc(NC(=O)C(=C)F)c(N(C)CCN(C)C)cc3OC)n2)c2ccccc21 [F1-D3-osimertinib] | significant inhibition of NSCLC cell growth
3 |  |  |  |  | C=C(F)C(=O)Nc1cc(Nc2nccc(-c3cn(C)c4ccccc34)n2)c(OC)cc1N(C)CCN(C)C [F1-osimertinib] | significant inhibition of NSCLC cell growth
